Assay results as given in article PMC7475246, “Unravelling the effect of two herbicide resistance mutations on acetolactate synthase kinetics and growth traits” (Journal of Experimental Botany, 2020).

Test system: T1, acetolactate synthase (ALS; AHAS), ALS1 and ALS2
T1 construct: native enzyme, partially purified by ammonium sulfate precipitation from young shoots (three- to four-leaf stage); mixture of ALS1 and ALS2
Experiment: in vitro ALS activity, colorimetric acetoin assay at […] nm
Format: biochemical, Alopecurus aequalis
Settings: 37 °C, 60 min; pH 7.5 HEPES, MgCl2, thiamine pyrophosphate, FAD; extract buffer with 200 mM pyruvate mixed 1:1 with MM; mean of three susceptible populations; read-out: I50

`COC(=O)c1ccc(CNS(C)(=O)=O)cc1S(=O)(=O)NC(=O)Nc1nc(OC)cc(OC)n1` [MM, mesosulfuron-methyl] showed an IC50 of 35.5 nM.
